Several values for one entry are separate records, joined by “and”; a condition that tells them apart may be missing. Equal entries are not always repeated.
Settings: Liquid, Vibrating tube method

CCCCCCCCCC [decane]
Settings | mass density
313.14 K, 33167 kPa | 739.6 kg/m3
313.14 K, 33192 kPa | 739.6 kg/m3
313.14 K, 33228 kPa | 739.6 kg/m3
313.14 K, 33249 kPa | 739.6 kg/m3
313.14 K, 33282 kPa | 739.6 kg/m3
313.14 K, 33310 kPa | 739.6 kg/m3
313.14 K, 33326 kPa | 739.8 kg/m3
313.14 K, 33356 kPa | 739.6 kg/m3
313.14 K, 33377 kPa | 739.6 kg/m3
313.14 K, 33399 kPa | 739.8 kg/m3
313.14 K, 33423 kPa | 739.6 kg/m3
313.14 K, 33447 kPa | 739.8 kg/m3
313.14 K, 33472 kPa | 739.7 kg/m3
313.14 K, 33490 kPa | 739.8 kg/m3
313.14 K, 33518 kPa | 739.7 kg/m3
313.14 K, 33536 kPa | 739.8 kg/m3
313.14 K, 33561 kPa | 739.7 kg/m3
313.14 K, 33582 kPa | 739.8 kg/m3
313.14 K, 33604 kPa | 739.9 kg/m3
313.14 K, 33629 kPa | 739.9 kg/m3
313.14 K, 33657 kPa | 740 kg/m3
313.14 K, 33682 kPa | 739.9 kg/m3
313.14 K, 33707 kPa | 739.8 kg/m3
313.14 K, 33726 kPa | 739.8 kg/m3
313.14 K, 33748 kPa | 739.9 kg/m3
313.14 K, 33766 kPa | 739.6 kg/m3
313.14 K, 33782 kPa | 739.9 kg/m3
313.14 K, 33804 kPa | 740 kg/m3
313.14 K, 33832 kPa | 740 kg/m3
313.14 K, 33858 kPa | 740 kg/m3
313.14 K, 33880 kPa | 740 kg/m3
313.14 K, 33906 kPa | 740.1 kg/m3
313.14 K, 33924 kPa | 740.1 kg/m3
313.14 K, 33950 kPa | 740 kg/m3
313.14 K, 33978 kPa | 740.2 kg/m3
313.14 K, 33997 kPa | 740.1 kg/m3
313.14 K, 34023 kPa | 740.1 kg/m3
313.14 K, 34043 kPa | 740.1 kg/m3
313.14 K, 34066 kPa | 740.1 kg/m3
313.14 K, 34082 kPa | 740.2 kg/m3
313.14 K, 34105 kPa | 740.2 kg/m3
313.14 K, 34131 kPa | 740.1 kg/m3
313.14 K, 34158 kPa | 740.3 kg/m3
313.14 K, 34181 kPa | 740.1 kg/m3
313.14 K, 34211 kPa | 740.2 kg/m3
313.14 K, 34231 kPa | 740.2 kg/m3
313.14 K, 34264 kPa | 740.2 kg/m3
313.14 K, 34281 kPa | 740.2 kg/m3
313.14 K, 34305 kPa | 740.2 kg/m3
313.14 K, 34333 kPa | 740.3 kg/m3
313.14 K, 34358 kPa | 740.4 kg/m3
313.14 K, 34391 kPa | 740.4 kg/m3
313.14 K, 34414 kPa | 740.4 kg/m3
313.14 K, 34437 kPa | 740.4 kg/m3
313.14 K, 34466 kPa | 740.4 kg/m3
313.14 K, 34503 kPa | 740.5 kg/m3
313.14 K, 34520 kPa | 740.4 kg/m3
313.14 K, 34543 kPa | 740.4 kg/m3
313.14 K, 34560 kPa | 740.5 kg/m3
313.14 K, 34566 kPa | 740.4 kg/m3
313.14 K, 34568 kPa | 740.5 kg/m3
313.14 K, 34571 kPa | 740.4 kg/m3 and 740.5 kg/m3
313.15 K, 1010 kPa | 715.4 kg/m3
313.15 K, 1032 kPa | 715.4 kg/m3
313.15 K, 1055 kPa | 715.5 kg/m3
313.15 K, 1082 kPa | 715.5 kg/m3
313.15 K, 1102 kPa | 715.4 kg/m3
313.15 K, 1122 kPa | 715.5 kg/m3
313.15 K, 1147 kPa | 715.6 kg/m3
313.15 K, 1182 kPa | 715.5 kg/m3
313.15 K, 1217 kPa | 715.7 kg/m3
313.15 K, 1254 kPa | 715.6 kg/m3
313.15 K, 3801 kPa | 717.9 kg/m3
313.15 K, 6798 kPa | 720.3 kg/m3
313.15 K, 6849 kPa | 720.5 kg/m3
313.15 K, 6918 kPa | 720.6 kg/m3
313.15 K, 6929 kPa | 720.5 kg/m3
313.15 K, 7976 kPa | 721.4 kg/m3
313.15 K, 7995 kPa | 721.4 kg/m3
313.15 K, 8013 kPa | 721.4 kg/m3
313.15 K, 8034 kPa | 721.4 kg/m3
313.15 K, 8045 kPa | 721.4 kg/m3
313.15 K, 8059 kPa | 721.4 kg/m3
313.15 K, 8073 kPa | 721.5 kg/m3
313.15 K, 8087 kPa | 721.4 kg/m3
313.15 K, 8102 kPa | 721.4 kg/m3
313.15 K, 8113 kPa | 721.4 kg/m3
313.15 K, 8129 kPa | 721.5 kg/m3
313.15 K, 8649 kPa | 721.9 kg/m3
313.15 K, 8666 kPa | 721.9 kg/m3
313.15 K, 8707 kPa | 721.7 kg/m3
313.15 K, 15697 kPa | 727.3 kg/m3
313.15 K, 15727 kPa | 727.5 kg/m3
313.15 K, 15757 kPa | 727.3 kg/m3
313.15 K, 15781 kPa | 727.5 kg/m3
313.15 K, 15816 kPa | 727.6 kg/m3
313.15 K, 15846 kPa | 727.6 kg/m3
313.15 K, 15873 kPa | 727.6 kg/m3
313.15 K, 17591 kPa | 728.8 kg/m3
313.15 K, 17641 kPa | 728.9 kg/m3
313.15 K, 17664 kPa | 728.8 kg/m3
313.15 K, 17686 kPa | 728.8 kg/m3
313.15 K, 17711 kPa | 728.9 kg/m3
313.15 K, 17734 kPa | 728.9 kg/m3
313.15 K, 20359 kPa | 730.9 kg/m3
313.15 K, 20406 kPa | 730.9 kg/m3
313.15 K, 20562 kPa | 730.8 kg/m3
313.15 K, 20961 kPa | 731.3 kg/m3
313.15 K, 20986 kPa | 731.2 kg/m3
313.15 K, 21097 kPa | 731.3 kg/m3
313.15 K, 21119 kPa | 731.3 kg/m3
313.15 K, 21249 kPa | 731.5 kg/m3
313.15 K, 21278 kPa | 731.5 kg/m3
313.15 K, 21337 kPa | 731.5 kg/m3
313.15 K, 21367 kPa | 731.5 kg/m3
313.15 K, 21711 kPa | 731.8 kg/m3
313.15 K, 21800 kPa | 731.8 kg/m3
313.15 K, 22455 kPa | 732.2 kg/m3
313.15 K, 22492 kPa | 732.4 kg/m3
313.15 K, 22548 kPa | 732.4 kg/m3
313.15 K, 22615 kPa | 732.4 kg/m3
313.15 K, 22970 kPa | 732.6 kg/m3
313.15 K, 22997 kPa | 732.7 kg/m3
313.15 K, 23029 kPa | 732.6 kg/m3
313.15 K, 23052 kPa | 732.6 kg/m3
313.15 K, 23072 kPa | 732.7 kg/m3
313.15 K, 23096 kPa | 732.7 kg/m3
313.15 K, 23131 kPa | 732.8 kg/m3
313.15 K, 23163 kPa | 732.8 kg/m3
313.15 K, 23183 kPa | 732.9 kg/m3
313.15 K, 23218 kPa | 732.9 kg/m3
313.15 K, 23249 kPa | 732.9 kg/m3
313.15 K, 23281 kPa | 733 kg/m3
313.15 K, 23309 kPa | 732.8 kg/m3
313.15 K, 23338 kPa | 733 kg/m3
313.15 K, 23370 kPa | 733 kg/m3
313.15 K, 25526 kPa | 734.6 kg/m3
